Consider two compounds from US20230407243A1, “GENETIC PLATFORM TO INVESTIGATE THE FUNCTIONS OF BACTERIAL DRUG EFFLUX PUMPS” (priority 2022, published 2023).

The experiment has as its system EKO-35 strains with integrated RND tripartite efflux pumps (AcrB, AcrEF, AcrD, and MdtEF) with pGDP2:emrE or empty pGDP-2. Description: Efflux pump interplay MIC profiling (pGDP2:emrE). Conditions: for Interplay effect / MIC / Fold Change from EKO-35: Pore −. Format: cell-based, Escherichia coli.

Converted amounts (≈) assume the structure as drawn.

As to `C[n+]1c2cc(N)ccc2cc2ccc(N)cc21.[Cl-]` [acriflavine], the “interplay of EmrE with tripartite efflux pumps on resistance” value (EKO-35, AcrB, AcrEF, AcrD, MdtEF combined with pEmrE) was “multiplicative effects”. Besides, the Interplay effect result runs as follows: (acrB with pEmrE) “Multiplicative”; (acrD with pEmrE) “Multiplicative”; (acrEF with pEmrE) “Multiplicative”; (mdtEF with pEmrE) “Multiplicative”. Besides, the MIC (usually the least concentration at which growth counts as inhibited) was found to be 0.098 µg/mL (strain EKO-35); 0.781 µg/mL (strain EKO-35 pEmrE); 25 µg/mL (strain acrB pEmrE); 1.56 µg/mL (strain acrB); 1.56 µg/mL (strain acrD pEmrE); 0.098 µg/mL (strain acrD). Also, the MIC is, setting by setting: (strain acrEF pEmrE) 12.5 µg/mL; (strain acrEF) 0.781 µg/mL; (strain mdtEF pEmrE) 1.56 µg/mL; (strain mdtEF) 0.098 µg/mL. The “Fold Change from EKO-35” value reads like this: (strain EKO-35 pEmrE) 8; (strain acrB pEmrE) 256; (strain acrB) 16; (strain acrD pEmrE) 16; (strain acrD) 1; (strain acrEF pEmrE) 128. Further, the “Fold Change from EKO-35” value is, setting by setting: (strain acrEF) 8; (strain mdtEF pEmrE) 16; (strain mdtEF) 1.

In the case of `CN(C)c1ccc(O)c2c1C[C@H]1C[C@H]3[C@H](N(C)C)C(O)=C(C(N)=O)C(=O)[C@@]3(O)C(O)=C1C2=O` [minocycline], the MIC reads like this: (strain EKO-35) 1.25 µg/mL (≈ 2.73 µM); (strain EKO-35 pEmrE) 1.25 µg/mL (≈ 2.73 µM); (strain acrB pEmrE) 5 µg/mL (≈ 10.9 µM); (strain acrB) 5 µg/mL (≈ 10.9 µM); (strain acrD pEmrE) 2.5 µg/mL (≈ 5.46 µM); (strain acrD) 2.5 µg/mL (≈ 5.46 µM). Besides, the minimal inhibitory concentration (MIC) is, setting by setting: (strain acrEF pEmrE) 5 µg/mL (≈ 10.9 µM); (strain acrEF) 2.5 µg/mL (≈ 5.46 µM); (strain mdtEF pEmrE) 2.5 µg/mL (≈ 5.46 µM); (strain mdtEF) 2.5 µg/mL (≈ 5.46 µM). The “Fold Change from EKO-35” value was determined as 1 (strain EKO-35 pEmrE); 4 (strain acrB pEmrE); 4 (strain acrB); 2 (strain acrD pEmrE); 2 (strain acrD); 4 (strain acrEF pEmrE). Also, the “Fold Change from EKO-35” value (strain acrEF) is recorded as 2, the “Fold Change from EKO-35” value (strain mdtEF pEmrE) is 2 and the “Fold Change from EKO-35” value (strain mdtEF) came out at 2.
